{"source": "patent US4920215A", "about": "“Antibiotic produced by fermentation” (Pfizer Inc., priority 1987, dated 1990)", "tested_on": "rumen fluid", "experiment": "In vitro rumen technique, propionic acid production", "details": "16 h, pH 6.8, read-out: increase of propionic acid over the control", "data": [{"smiles": "CC[C@@H](C(=O)[C@@H](C)[C@@H](O)[C@H](C)[C@@H]1O[C@@H]([C@@H](CC)C(=O)O)CC[C@@H]1C)[C@H]1O[C@]2(C=C[C@@H](O)[C@]3(CC[C@@](C)([C@H]4CC[C@](O)(CC)[C@H](C)O4)O3)O2)[C@H](C)C[C@@H]1C", "note": "[salinomycin]", "values": [{"measurement": "activation at 10 µg/mL", "result": "~61", "unit": "%"}]}]}
